Reference: the supplement of paper PMC10307832

Legend:
Assay in all cases: relative viability (nuclei count vs DMSO), 5 days (fraction); higher = more cells survive
HCC-44 = tested on: HCC-44
Outline: (§1)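 A single step with final 0.05% Triton X-100, 1% formaldehyde and 1 ug/ml Hoechst fixed the cells and stained nuclei 5 days after treatment. Lung cancer cell lines in 1536-well plates had been treated by pin tool the day after seeding with one drug alone or a fixed anchor-drug dose plus five library-drug doses (not always all listed) in √10 steps, and nuclei were counted on 4× images. Relative viability is the ratio of nuclei in treated wells to nuclei in vehicle wells, taken as the median of duplicate plates.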

NCI-H2087 = tested on: NCI-H2087
Outline: as §1

IA-LM = tested on: IA-LM
Outline: as §1

NCI-H1648 = tested on: NCI-H1648
Outline: as §1

HCC-78 = tested on: HCC-78
Outline: as §1

NCI-H322M = tested on: NCI-H322M
Outline: as §1

NCI-H1299 = tested on: NCI-H1299
Outline: as §1

NCI-H1703 = tested on: NCI-H1703
Outline: as §1

Calu-6 = tested on: Calu-6
Outline: as §1

EBC-1 = tested on: EBC-1
Outline: as §1

A549 = tested on: A549
Outline: as §1

Cc1csc(=NC2CCCCC2)n1/N=C/c1ccc(O)c(O)c1O [MIM1] + O=C(CCCCCCC(=O)Nc1ccccc1)NO [Vorinostat] (partner 1 µM)
relative viability (HCC-44; first compound 0.2 µM): 1.1 | relative viability (HCC-44; first compound 0.6325 µM): 1.1 | relative viability (HCC-44; first compound 2 µM): 1.01 | relative viability (HCC-44; first compound 6.325 µM): 1.08 | relative viability (HCC-44; first compound 20 µM): 0.324 | relative viability (NCI-H2087; first compound 0.2 µM): 0.68 | relative viability (NCI-H2087; first compound 0.6325 µM): 0.536 | relative viability (NCI-H2087; first compound 2 µM): 0.877 | relative viability (NCI-H2087; first compound 6.325 µM): 0.596 | relative viability (NCI-H2087; first compound 20 µM): 0.497 | relative viability (IA-LM; first compound 0.2 µM): 0.883 | relative viability (IA-LM; first compound 0.6325 µM): 0.935 | relative viability (IA-LM; first compound 2 µM): 0.93 | relative viability (IA-LM; first compound 6.325 µM): 0.57 | relative viability (IA-LM; first compound 20 µM): 0.159 | relative viability (NCI-H1648; first compound 0.2 µM): 0.431 | relative viability (NCI-H1648; first compound 0.6325 µM): 0.396 | relative viability (NCI-H1648; first compound 2 µM): 0.337 | relative viability (NCI-H1648; first compound 6.325 µM): 0.404 | relative viability (NCI-H1648; first compound 20 µM): 0.206 | relative viability (HCC-78; first compound 0.2 µM): 0.452 | relative viability (HCC-78; first compound 2 µM): 0.38 | relative viability (HCC-78; first compound 6.325 µM): 0.424 | relative viability (HCC-78; first compound 20 µM): 0.438 | relative viability (NCI-H322M; first compound 0.2 µM): 0.889 | relative viability (NCI-H322M; first compound 0.6325 µM): 0.917 | relative viability (NCI-H322M; first compound 2 µM): 0.789 | relative viability (NCI-H322M; first compound 6.325 µM): 0.733 | relative viability (NCI-H322M; first compound 20 µM): 0.418

Cc1csc(=NC2CCCCC2)n1/N=C/c1ccc(O)c(O)c1O [MIM1] + O=C(c1cc(Cc2n[nH]c(=O)c3ccccc23)ccc1F)N1CCN(C(=O)C2CC2)CC1 [Olaparib] (partner 8 µM)
relative viability (NCI-H1299; first compound 0.2 µM): 0.942 | relative viability (NCI-H1299; first compound 0.6325 µM): 0.954 | relative viability (NCI-H1299; first compound 2 µM): 1.03 | relative viability (NCI-H1299; first compound 6.325 µM): 0.928 | relative viability (NCI-H1299; first compound 20 µM): 0.728 | relative viability (HCC-44; first compound 0.2 µM): 1.02 | relative viability (HCC-44; first compound 0.6325 µM): 0.975 | relative viability (HCC-44; first compound 2 µM): 0.859 | relative viability (HCC-44; first compound 6.325 µM): 0.675 | relative viability (HCC-44; first compound 20 µM): 0.455 | relative viability (NCI-H1703; first compound 0.2 µM): 0.54 | relative viability (NCI-H1703; first compound 0.6325 µM): 0.738 | relative viability (NCI-H1703; first compound 2 µM): 0.509 | relative viability (NCI-H1703; first compound 6.325 µM): 0.369 | relative viability (NCI-H1703; first compound 20 µM): 0.0913 | relative viability (NCI-H2087; first compound 0.2 µM): 0.535 | relative viability (NCI-H2087; first compound 0.6325 µM): 0.701 | relative viability (NCI-H2087; first compound 2 µM): 0.702 | relative viability (NCI-H2087; first compound 6.325 µM): 0.481 | relative viability (NCI-H2087; first compound 20 µM): 0.241 | relative viability (IA-LM; first compound 0.2 µM): 0.947 | relative viability (IA-LM; first compound 0.6325 µM): 0.854 | relative viability (IA-LM; first compound 2 µM): 0.829 | relative viability (IA-LM; first compound 6.325 µM): 0.518 | relative viability (IA-LM; first compound 20 µM): 0.192 | relative viability (Calu-6; first compound 0.6325 µM): 0.563 | relative viability (Calu-6; first compound 2 µM): 0.614 | relative viability (Calu-6; first compound 6.325 µM): 0.288 | relative viability (Calu-6; first compound 20 µM): 0.152 | relative viability (NCI-H1648; first compound 0.2 µM): 1 | relative viability (NCI-H1648; first compound 0.6325 µM): 1.03 | relative viability (NCI-H1648; first compound 2 µM): 0.697 | relative viability (NCI-H1648; first compound 6.325 µM): 0.611 | relative viability (NCI-H1648; first compound 20 µM): 0.298 | relative viability (EBC-1; first compound 0.2 µM): 0.559 | relative viability (EBC-1; first compound 0.6325 µM): 0.742 | relative viability (EBC-1; first compound 2 µM): 0.673 | relative viability (EBC-1; first compound 6.325 µM): 0.422 | relative viability (EBC-1; first compound 20 µM): 0.338 | relative viability (HCC-78; first compound 0.2 µM): 0.716 | relative viability (HCC-78; first compound 2 µM): 0.906 | relative viability (HCC-78; first compound 6.325 µM): 0.47 | relative viability (HCC-78; first compound 20 µM): 0.462 | relative viability (NCI-H322M; first compound 0.2 µM): 0.742 | relative viability (NCI-H322M; first compound 0.6325 µM): 0.683 | relative viability (NCI-H322M; first compound 2 µM): 0.72 | relative viability (NCI-H322M; first compound 6.325 µM): 0.746 | relative viability (NCI-H322M; first compound 20 µM): 0.367 | relative viability (A549; first compound 0.2 µM): 0.277 | relative viability (A549; first compound 0.6325 µM): 0.282 | relative viability (A549; first compound 2 µM): 0.304 | relative viability (A549; first compound 6.325 µM): 0.181 | relative viability (A549; first compound 20 µM): 0.0693

Cc1cn(-c2cc(NC(=O)c3ccc(C)c(Nc4nccc(-c5cccnc5)n4)c3)cc(C(F)(F)F)c2)cn1 [Nilotinib] + NC(=O)Nc1cc(-c2cccc(F)c2)sc1C(=O)N[C@H]1CCCNC1 [AZD7762] (partner 0.2 µM)
relative viability (HCC-44; first compound 0.001 µM): 0.969 | relative viability (HCC-44; first compound 0.003162 µM): 1 | relative viability (HCC-44; first compound 0.01 µM): 0.996 | relative viability (HCC-44; first compound 0.1 µM): 0.923 | relative viability (NCI-H1703; first compound 0.001 µM): 0.117 | relative viability (NCI-H1703; first compound 0.003162 µM): 0.121 | relative viability (NCI-H1703; first compound 0.01 µM): 0.11 | relative viability (NCI-H1703; first compound 0.03162 µM): 0.121 | relative viability (NCI-H1703; first compound 0.1 µM): 0.117 | relative viability (NCI-H2087; first compound 0.001 µM): 0.828 | relative viability (NCI-H2087; first compound 0.003162 µM): 1.58 | relative viability (NCI-H2087; first compound 0.01 µM): 1.98 | relative viability (NCI-H2087; first compound 0.03162 µM): 0.86 | relative viability (NCI-H2087; first compound 0.1 µM): 0.893 | relative viability (NCI-H1648; first compound 0.001 µM): 0.561 | relative viability (NCI-H1648; first compound 0.003162 µM): 0.664 | relative viability (NCI-H1648; first compound 0.01 µM): 0.663 | relative viability (NCI-H1648; first compound 0.03162 µM): 0.569 | relative viability (NCI-H1648; first compound 0.1 µM): 0.65 | relative viability (HCC-78; first compound 0.001 µM): 0.668 | relative viability (HCC-78; first compound 0.003162 µM): 0.442 | relative viability (HCC-78; first compound 0.01 µM): 0.725 | relative viability (HCC-78; first compound 0.03162 µM): 0.58 | relative viability (HCC-78; first compound 0.1 µM): 0.628 | relative viability (NCI-H322M; first compound 0.001 µM): 0.597 | relative viability (NCI-H322M; first compound 0.003162 µM): 0.525 | relative viability (NCI-H322M; first compound 0.01 µM): 0.518 | relative viability (NCI-H322M; first compound 0.03162 µM): 0.41 | relative viability (NCI-H322M; first compound 0.1 µM): 0.407
